Reference: patent US20070244449A1, “System and method for the prevention of bacterial and fungal infections including Urinary Tract Infections (UTI) using N-halogenated amino acids” (Novacal Pharmaceuticals, Inc., priority 2005, published 2007)

What was measured:
[1] = test system: urease positive Escherichia coli ATCC 25922; assay: Biofilm prevention in model urinary catheter flow system; assay type: cell-based
Protocol: Test Articles Used Were: • Sterile saline • White vinegar at 1:3 dilution with distilled water (filter sterilized). • Neomycin Prescription: 1 ml into 1000 ml of sterile saline • N,N-dichloro 2,2-dimethyl taurine, 40 mM, pH 4, 0.9% by weight NaCl
Day 0: The test system, as described in detail above, utilized size 14 Foley catheters, cut and installed into a pre-sterilized flow system using aseptic techniques. Sterile medium was supplied to the system via a flow-break, to prevent back-growth into the medium reservoir. The entire system was placed into a 37° C. incubator. After conditioning the system with artificial urine medium for 30 minutes, each catheter was treated with a disinfectant. 20.0 ml of each treatment solution was loaded into 30 ml syringes and connected to a syringe pump. Sterile sections of tubing were attached from the syringe to the valve furthest from the flow break (bag end of the catheter). This end is designated as FRONT for sampling purposes. The pump was turned on and the treatments were introduced at 2.0 ml/min for 10 minutes through the catheters. Excess medium and treatment solution was captured in a waste container. After 10 minutes, the syringe pump was turned off and the solutions were left stationary in the catheters for 30 minutes. The solutions were then withdrawn back through the catheter into the syringe. The catheters were then rinsed with sterile medium for 30 minutes.
On Day 0 only: An inoculum from an overnight culture of urease positive Escherichia coli ATCC 25922 grown in artificial urine medium at 37° C. was introduced into the system via the valve closest to the flow break (bladder side of catheter). Each inoculum was tested for confirmation of urease production. After inoculation, the system remained under static conditions (no flow) for two hours, to allow for bacterial attachment to the catheters. Flow of artificial urine medium was then initiated and maintained at a rate of 0.75 ml/min.
Days 1, 3 and 5: For viable cell counts, a 3.0 centimeter section of tubing was removed and scraped with a sterile stainless steel rod (using aseptic technique) into a tube containing 10.0 ml of sterile PBS. The tubes were then sonicated for two minutes and the suspension was vortexed for one minute. The number of viable (culturable) bacteria was enumerated by serial dilution in PBS and plate counts using the spread-plate technique. Results are expressed as CFU/cm^2 and were calculated as described in Phase One.
Days 1 and 3: After sampling, the catheters were disinfected and rinsed with sterile medium as described above.
Days 2 and 4: the catheters were disinfected and rinsed with sterile medium as described above. No samples were taken.
Day 5: Samples were taken for imaging and both ends of the catheter were sampled for viable cell count data.

[2] = test system: Escherichia coli ATCC 25922; assay: Destruction of 48 h biofilm on 1-cm Foley catheter pieces, plate count; assay type: cell-based; settings: 33 mM, 0.9% saline, pH 3.5
Protocol: (§1) We have devised a dynamic in vitro model using traditional microbiological methods to assess the antimicrobial efficacy of 33 mM N, N-dichloro 2,2-dimethly taurine in 0.9% saline at pH 3.5, as compared to physiological saline in disinfecting intra-luminal and extra-luminal indwelling Foley catheter.
(§2) Foley Catheter, manufactured by BARD • N,N-dichloro 2,2-dimethyl taurine (33 mM) in 0.9% saline pH 3.5 • Escherichia coli ATCC 25922 • Proteus mirabilis ATCC 29245
(§3) Neutralizer Broth containing: A broth containing dextrose, lecithin, sodium thiosulfate, pancreatic digest of casein, Tween® 80, yeast extract, sodium bisulfate, sodium thioglycollate, monopotassium phosphate, and bromcresol purple.
(§4) The ability of N,N-dichloro 2,2-dimethyl taurine to destroy biofilm formation was evaluated as follows. First, biofilm was established on 1-cm-long pieces of catheter for 48 hours in nutrient broth in the presence of either Proteus mirabilis or Escherichia coli. Subsequently, the biofilm-bearing pieces of catheter were exposed to 33 mM N,N-dichloro 2,2-dimethyl taurine in 0.9% saline at pH 3.5 over various periods of time. After the exposure, the pieces of catheter were transferred into 1 mL of neutralizer broth to stop the reaction. 0.1 mL (10%) of the neutralizer broth was then plated out onto nutrient agar and the number of colonies was counted. The CFU (Colony Forming Unit) values obtained were multiplied by 10 to obtain the actual CFU/mL values per treated sample.

[3] = test system: Proteus mirabilis ATCC 29245; assay: as above; assay type: cell-based; settings: 33 mM, 0.9% saline, pH 3.5
Protocol: as §1, §2, §3, §4

[4] = test system: urease positive Escherichia coli ATCC 25922; assay: Biofilm eradication in model urinary catheter flow system; assay type: cell-based; settings: for Average Log CFU/cm^2 on catheter section after treatment, average 3 pieces / Average Log CFU/cm^2 on catheter section after treatment, end / Average Log CFU/cm^2 on catheter section after treatment, front / Average Log CFU/cm^2 on catheter section after treatment, middle / Log reduction: pH 4, 0.9% NaCl; for Average Log CFU/cm^2 on catheter section after treatment, average 3 pieces / Average Log CFU/cm^2 on catheter section after treatment, end / Average Log CFU/cm^2 on catheter section after treatment, front / Average Log CFU/cm^2 on catheter section after treatment, middle: 3-day biofilm, 10 min flow + 30 min stationary; for Log reduction: versus PBS or saline
Protocol: A test system was established which utilized size 14 Foley catheters (supplied by NovaCal), which were cut and installed into a pre-sterilized flow system (FIG. 4) using aseptic techniques. The system consists of five parallel channels, one channel per catheter. Sterile medium was supplied to the system via a flow-break, to prevent back-growth into the medium reservoir. The entire system was placed in a 37° C. incubator. After conditioning the system with artificial urine medium for 30 minutes, 2.0 ml inoculum from an overnight culture of urease positive Escherichia coli ATCC 25922 grown in artificial urine medium at 37° C. was introduced into the system via the valve closest to the flow break (bladder side of catheter). Each inoculum was tested to confirm urease production. After inoculation, the system remained under static conditions (no flow) for two hours, to allow for bacterial attachment to the catheters. Flow of artificial urine medium was then initiated and maintained at a rate of 0.75 ml/min for 3 days.
Test Articles Used Were: • Sterile saline • N,N-dichloro 2,2-dimethyl taurine, 4 mM, pH 4, 0.9% by weight NaCl • N,N-dichloro 2,2-dimethyl taurine, 40 mM, pH 4, 0.9% by weight NaCl
20 ml of each treatment solution N,N-dichloro 2,2-dimethyl taurine and sterile control solution were loaded into 30 ml syringes and connected to a syringe pump. Sterile sections of tubing were attached from the syringe to the valve furthest from the flow break (bag end of the catheter). This end is designated as FRONT for sampling purposes. The pump was turned on and the treatments were introduced at 2.0 ml/min for 10 minutes through the catheters. Excess medium and treatment solution was captured in a waste container. After 10 minutes, the syringe pump was turned off and the solutions were left stationary in the catheters for 30 minutes. The solutions were then withdrawn back through the catheter into the syringe, medium flow was resumed for a 30 minute rinse time and the catheters were then sampled.
Each catheter was divided into 3 segments (front, middle, end) and each segment was subsampled. One subsample was used to determine bacterial populations by plate count, another subsample was analyzed by staining with the LIVE/DEAD® Baclight™ bacterial viability kit (L7012, Molecular Probes, Oregon, USA) using confocal laser microscopy (CSLM), the third sample was imaged using scanning electron microscopy (SEM).
For viable cell counts, a 3.0 centimeter section of tubing was removed and scraped with a sterile stainless steel rod (using aseptic technique) into a tube containing 10.0 ml of sterile phosphate-buffered saline (PBS). The tubes were then sonicated for two minutes and the suspension was vortexed for one minute. The number of viable (culturable) bacteria was enumerated by serial dilution in PBS and plate counts using the spread-plate technique. Results were expressed as CFU/cm^2 and are calculated as follows: [formula]
The surface area of the internal lumen of the catheter section scraped was determined to be 2.826 cm^2.
Three treatment runs were performed on 3 catheters each: One treated with PBS or sterile 0.9% saline as control, one treated with 4 mM and one treated with 40 mM N,N-dichloro 2,2-dimethyl taurine. The Log (CFU/cm^2) was calculated from the average of 9 treatments, consisting of 3 treatments of 3 catheter pieces for each Test Article.

[5] = test system: E. coli and Pr. mirabilis; assay: Treated biofilm-bearing catheter pieces: re-culture (OD600) and visual examination; assay type: cell-based, Escherichia coli; Proteus mirabilis
Protocol: In order to measure the amount of live bacteria left on the pieces of catheter following treatment, the biofilm-bearing pieces of catheter were transferred into tubes containing fresh growth medium. After allowing growth in a shaker at 37° C. for 4 hours, Optical Density (OD) was read at 600 nm.
This was also shown by very low optical denisty readings (average of 0.057 OD600 units, individual data not listed) following the attempt to re-culture the bacteria from treated catheters.

[6] = test system: bacteria on Foley catheter removed from a patient; assay: Ex-vivo treatment of a patient catheter, viable plate counts; assay type: cell-based; settings: 40 mM
Protocol: Test Articles Used Were: • Sterile phosphate-buffered saline (PBS) • N,N-dichloro 2,2-dimethyl taurine, 40 mM, pH 4, 0.9% by weight NaCl
A Foley catheter was removed from a patient by hospital personnel and placed in a sterile bag. In the Bozeman Deaconess Hospital (BDH) lab, the outside of the catheter was wiped down with 70% ethanol. Then the catheter was aseptically cut into 3 catheter portions (bag-end, middle and patient-end). Each portion was cut into 3.0 cm long sections using a ruler and razor blades.
Three of the sections (one bag-end, one middle and one patient-end) designated as control were placed into sterile PBS. Three of the sections (one bag-end, one middle and one patient-end) were placed in 40 mM N,N-dichloro 2,2-dimethyl taurine. All catheter sections were treated for 30 minutes individually in sterile glass tubes, each with sufficient solution to be immersed completely. After treatment, each 3 cm section was removed from the treatment tubes and the PBS control tubes and placed into a second glass tube containing sterile PBS for a 2 minute rinse in order to remove the treatment solution. The section was then removed from the tube and aseptically cut into 1.0 cm and 2.0 cm pieces. The 2.0 cm piece was placed in a tube containing 10 ml of sterile PBS, vortexed, sonicated and diluted for viable plate counts. The number of viable (culturable) bacteria was enumerated by serial dilution in PBS and plate counts using the spread-plate technique. Samples were plated on blood agar plates. Results will be expressed as colony-forming units/cm^2, CFU/cm^2 (calculated as 2.0 cm length×0.25 cm (radius)×3.14 (pi)=1.57 cm^2). The 1.0 cm piece was placed in 4% formaldehyde solution.

[7] = daily treatment, DCDMT 40 mM pH 4 0.9% NaCl, vinegar 1:3 in water, neomycin prescription 1 ml in 1000 ml saline
[8] = pH 4, 0.9% NaCl, 30 min immersion

With `CC(C)(CS(=O)(=O)O)N(Cl)Cl` [N,N-dichloro 2,2-dimethyl taurine] the “biofilm formation during the 5 day duration of the experiment” value ([1]; 40 mM, pH 4, 0.9% NaCl) was “appeared to inhibit biofilm formation”, the “Biofilm prevention, viable cell count, Day 1” value [1, 7] was 2.6 log CFU/cm^2 and the “Biofilm prevention, viable cell count, Day 3” value [1, 7] was 3.2 log CFU/cm^2. For the same molecule, the “Biofilm prevention, viable cell count, Day 5 "End" (bladder end)” value [1, 7] was 3.1 log CFU/cm^2, the “Biofilm prevention, viable cell count, Day 5 "Front" (bag end)” value [1, 7] was 3.9 log CFU/cm^2 and the CFU/mL ([2]; exposure 5 min) was 0 CFU/mL. It also gave a CFU/mL ([2]; exposure 10 min) of 0 CFU/mL, a CFU/mL ([2]; exposure 20 min) of 0 CFU/mL and a CFU/mL ([2]; exposure 30 min) of 0 CFU/mL. For the same molecule, the CFU/mL ([2]; exposure 45 min) was 0 CFU/mL, the CFU/mL ([2]; exposure 60 min) was 0 CFU/mL and the CFU/mL ([2]; exposure 120 min) was 0 CFU/mL. For the same molecule, the CFU/mL ([2]; exposure <1 min) was 0 CFU/mL, the CFU/mL ([3]; exposure 5 min) was 1210 CFU/mL and the CFU/mL ([3]; exposure 10 min) was 150 CFU/mL. The CFU/mL ([3]; exposure 20 min) was 150 CFU/mL, the CFU/mL ([3]; exposure 30 min) was 100 CFU/mL and the CFU/mL ([3]; exposure 45 min) was 20 CFU/mL. The CFU/mL ([3]; exposure 60 min) was 10 CFU/mL, the CFU/mL ([3]; exposure 120 min) was 260 CFU/mL and the CFU/mL ([3]; exposure <1 min) was >>3000 CFU/mL. For the same molecule, the “bacterial counts and presence of biofilm (visual interpretation from images)” value ([4]; 4 mM and 40 mM) was “significantly reduced”, the “Average Log CFU/cm^2 on catheter section after treatment, average 3 pieces” value ([4]; 4 mM) was 4.4 Log CFU/cm^2 and the “Average Log CFU/cm^2 on catheter section after treatment, end” value ([4]; 4 mM) was 5.1 Log CFU/cm^2. The “Average Log CFU/cm^2 on catheter section after treatment, front” value ([4]; 4 mM) was 4.1 Log CFU/cm^2, the “Average Log CFU/cm^2 on catheter section after treatment, middle” value ([4]; 4 mM) was 3.9 Log CFU/cm^2 and the Log reduction ([4]; 4 mM) was 4.7 Log. For the same molecule, the “Average Log CFU/cm^2 on catheter section after treatment, average 3 pieces” value ([4]; 40 mM) was 3.8 Log CFU/cm^2, the “Average Log CFU/cm^2 on catheter section after treatment, end” value ([4]; 40 mM) was 3.8 Log CFU/cm^2 and the “Average Log CFU/cm^2 on catheter section after treatment, front” value ([4]; 40 mM) was 3.7 Log CFU/cm^2. For the same molecule, the “Average Log CFU/cm^2 on catheter section after treatment, middle” value ([4]; 40 mM) was 3.8 Log CFU/cm^2, the Log reduction ([4]; 40 mM) was 5.3 Log and the “Visual examination of biofilm on the catheter surface” value ([5]; 33 mM in 0.9% saline at pH 3.5) was “subsequent removal”. For the same molecule, the “optical density readings following re-culture of bacteria from treated catheters (average)” value ([5]; 33 mM, 0.9% saline, pH 3.5, 4 h growth at 37 C in fresh medium, average, individual data not listed) was 0.057 OD600 units, the “Average Log CFU/cm^2 on catheter section after treatment, average 3 pieces” value [6, 8] was 1.2 Log CFU/cm^2 and the “Average Log CFU/cm^2 on catheter section after treatment, bag end” value [6, 8] was 2.1 Log CFU/cm^2. For the same molecule, the “Average Log CFU/cm^2 on catheter section after treatment, middle” value [6, 8] was 0.5 Log CFU/cm^2, the “Average Log CFU/cm^2 on catheter section after treatment, patient end” value [6, 8] was 0.8 Log CFU/cm^2 and the Log reduction ([6]; compared to catheter pieces treated with sterile PBS) was 1.8 Log.
